Experimental data from patent US20210275576A1, “MOLECULAR HYDROGEN-CONTAINING COMPOSITION FOR PREVENTION AND/OR IMPROVEMENT OF GENETIC DISORDER” (MiZ Company Limited, priority 2020, published 2021).

System: patient diagnosed as having Down syndrome
Conditions: inhalation 1-3 hours per day for one month, hydrogen concentration 4% to 6%
Description: A patient diagnosed as having Down syndrome developed mild cognitive impairment and could not go out because of a depressive symptom. Additionally, their skin had wrinkles due to premature aging characteristic to Down syndrome.

In the case of `[HH]` [hydrogen, molecular hydrogen], the “ability to go out” value is reported as “could go out”, the motivation to learn is reported as “got motivated to learn” and the “skin resilience (premature aging)” value is reported as “became resilient”. The “skin wrinkles (premature aging)” value was “became less noticeable” and the depressive symptom (200 ml/min (Jobs-α generator)) was “improved”.
